# Source: paper PMC8170916, “Sublingual AKBA Exerts Antidepressant Effects in the Aβ-Treated Mouse Model” (Biomolecules, 2021)
# Experiments:
# [1] = system: NF-kB p65; test: Western blotting quantification of NF-kB p65 in PFC and HIPP; format: in vivo; conditions: mice 7 days after icv Aβ 4 µM, sublingual AKBA 5 mg/kg 30 min earlier
# Method: (§1) All behavioral experiments were conducted at 5 or 30 min after sublingual administrations of AKBA or vehicle in either SHAM or Aβ-treated mice. Based upon behavioral outcomes observed, neurochemical and biochemical quantifications were performed 30 min after AKBA or vehicle administration in either SHAM or Aβ-treated mice.
# (§2) Anesthetized animals were sacrificed by cervical dislocation. Brains were immediately removed and kept on ice for dissection of PFC and HIPP, according to the atlas of Paxinos and Franklin. Tissues were frozen and stored at −80 °C until analyses were carried out. Samples (PFC and HIPP) were homogenized (1:10 w/v) at 4 °C using a PBS buffer containing a 1:100 protease and phosphatase inhibitor cocktail (HALT inhibitors, Thermo Fisher Scientific, Cleveland, OH, USA) for biochemical analyses or perchloric acid 0.1 M for neurochemical analyses. Homogenates were centrifuged at 13,000× g at 4 °C for 20 min, and supernatants were used for further determinations.
# (§3) The total amount of proteins was measured in homogenates by using Pierce BCA Assay (Thermo Fisher Scientific, Cleveland, OH, USA). Forty µg of the total lysate protein were separated by SDS-PAGE precast gels (Bio-Rad Laboratories Inc., Segrate (MI), Italy), transferred onto nitrocellulose membranes (Bio-Rad Laboratories Inc, Segrate (MI), Italy) and then blocked for 1 h in blocking buffer (SigmaAldrich, Milan, Italy). Rabbit polyclonal antibody against GFAP (Dako Products, USA; 1:2000), rabbit monoclonal antibody against CD11b (Abcam, Cambridge, MA, USA; ab133357, 1:1000) and mouse monoclonal antibody against NF-kB p65 (Santa Cruz Biotechnology, Dallas, Texas, USA; 1:2000) were used to incubate the membranes overnight at 4 °C. After HRP-conjugated specific antibody incubation, ECL reagent (Bio-Rad Laboratories Inc., Segrate (MI), Italy) was added to the immune complex and chemiluminescence was detected by ChemiDoc MP system (Bio-Rad Laboratories Inc., Segrate (MI), Italy). Optical densities of the bands were measured using ImageJ software (http://rsb.info.nih.gov/ij/ accessed on 15 March 2021) and normalized against bands relative to β-actin (1:5000, Abcam, Cambridge, UK).
# [2] = system: GFAP; test: Western blotting quantification of GFAP in PFC and HIPP; format: in vivo; conditions: mice 7 days after icv Aβ 4 µM, sublingual AKBA 5 mg/kg 30 min earlier
# Method: as §1, §2, §3
# [3] = system: Caco-2 cells; design: method as in PMID 19010411; conditions: in vitro model to simulate human intestinal absorption; cited from earlier work
# [4] = system: 5-HT; test: 5-HT quantification in PFC and HIPP by HPLC with electrochemical detection; format: in vivo; conditions: mice 7 days after icv Aβ 4 µM, sublingual AKBA 5 mg/kg 30 min earlier
# Method: as §1, §2
# 5-HT, noradrenaline (NA), and KYN levels were measured in the PFC and HIPP of mice by HPLC coupled with an electrochemical detector (Ultimate ECD, Thermo Scientific Dionex, Milan, Italy) as already reported. Separation was performed by a LC18 reverse phase column (Kinetex, 150 mm × 3.0 mm, ODS 5 μm; Phenomenex, Castel Maggiore-Bologna, Italy). The detection was accomplished by a thin layer amperometric cell (Thermo Scientific Dionex, Milan, Italy) with a 5 mm diameter glassy carbon electrode at a working potential of 400 mV (5-HT and NA) or 0.750 mV (KYN) vs. Pd. The mobile phase consisted of an aqueous buffer containing 75 mM NaH2PO4, 1.7 mM octane sulfonic acid, 0.3 mM EDTA, and acetonitrile 10%, buffered at pH 3.0. The flow rate was kept at 0.7 mL·min-1 by an isocratic pump (Shimadzu LC-10 AD, Kyoto, Japan). Data acquisition and integration were performed by using Chromeleon software (version 6.80, Thermo Scientific Dionex, Milan, Italy). GLU concentrations were determined by HPLC coupled with fluorescence detection (emission length 460 nm; excitation length 340 nm), as previously published. Analyses were carried out using an LC18 reverse phase column (Kinetex, 150 mm × 3.0 mm, ODS 5 μm; Phenomenex, Castel Maggiore, Bologna, Italy) and detection was accomplished by pre-column derivatization with ophthalaldehyde/mercaptopropionic acid. The mobile phase consisted of a 50 mM sodium acetate buffer, at pH 6.95, with gradient methanol increasing linearly from 2 to 30% (v/v) over a 40 min run. […] Results were analyzed by Borwin software (version 1.50; Jasco, Cremella, Italy) and the amino acid concentration was expressed as µM. All data were normalized for total area weight and were expressed as concentration/mg of tissue.
compound,measurement,setting,value
"CC(=O)O[C@@H]1CC[C@@]2(C)[C@@H](CC[C@]3(C)[C@@H]2C(=O)C=C2[C@@H]4[C@@H](C)[C@H](C)CC[C@]4(C)CC[C@]23C)[C@@]1(C)C(=O)O [AKBA, 3-O-acetyl-11-keto-β-boswellic acid]",NF-kB p65 content in the HIPP (optical density normalized to actin),[1]; HIPP,prevented such an increase
same,NF-kB p65 levels in the PFC (optical density normalized to actin),[1]; PFC,prevented such an increase
same,GFAP levels in the HIPP (optical density normalized to actin),[2]; HIPP,restored those levels back to control
same,GFAP levels in the PFC (optical density normalized to actin),[2]; PFC,prevented such an increase
same,Permeability in Caco-2 cells,[3],low permeability
same,5-HT levels in the HIPP,[4]; HIPP,no differences among experimental groups
same,5-HT levels in the PFC,[4]; PFC,no effect
